# Laboratory results: US20230391779A1, “BICYCLIC COMPOUNDS, COMPOSITIONS AND USE THEREOF” (Betta Pharmaceuticals Co., Ltd., priority 2020, published 2023)
# Test system: TEAD-YAP/TAZ interaction
# Test: CTGF ELISA assay
# Format: cell-based, human
# Conditions: CTGF in culture supernatant of NCI-H2052 cells, 24 hours with compound
# Protocol: The detection of CTGF expression level can assessed the binding activity of TEAD-YAP/TAZ transcription factor, and the CTGF expression level was quantified by SimpleStep ELISA® kit (Abcam, ab261851).
# NCI-H2052 cells (Purchased from ATCC) were cultured in RPMI 1640 medium, adding 10% FBS and 1% Penicillin-Streptomycin Solution and 1 mM Sodium pyruvate. The day before compounds treatment, the cultured cells were washed with PBS and digested with trypsin, then centrifuged and collected. Discarded the supernatant, the cells were resuspended in fresh complete medium. After cells counted, cells were seeded at 6500 cells/well in 96-well plates. And then cells were cultured overnight in incubator (37° C., 5% CO2).
# After the cells were cultured overnight, discarded the culture supernatant, then washed with PBS solution, cells were incubated with 200 μl medium containing compounds in each well. The starting concentration was 10 μM and serial dilution in DMSO and medium were performed to achieve a final DMSO concentration of 0.5% (Final compounds concentration were 10000, 2500, 625, 156, 39.1, 9.77, 2.44, 0.61 nM, 0 nM (0.5% DMSO), The cells were then cultured in incubator (37° C., 5% CO2). Cultured for 24 hours, the cells were centrifuged at 1500 RPM at 4° C. for 5 minutes, and then 50 μl of culture supernatant were tested for CTGF ELISA assay.
# The Human CTGF SimpleStep ELISA® Kit (Abcam, ab261851) employs an affinity tag labeled capture antibody and a reporter conjugated detector antibody which immunocapture the sample analyte in solution. This entire complex (capture antibody/analyte/detector antibody) is in turn immobilized via immunoaffinity of an anti-tag antibody coating the well. To perform the assay, samples or standards are added to the wells, followed by the antibody mix (capture antibody/detector antibody). After incubation, the wells are washed to remove unbound material. TMB Development Solution is added and during incubation is catalyzed by HRP, generating blue coloration. This reaction is then stopped by addition of Stop Solution completing any color change from blue to yellow. Signal is generated proportionally to the amount of bound analyte and the intensity is measured at 450 nm. Firstly, prepare all reagents, samples, and standards as instructed. Add 50 μl standard or sample to appropriate wells. Then add 50 μl of the Antibody Cocktail to each well. Seal the plate and incubate for 1 hour at room temperature on a plate shaker. Wash each well with Wash Buffer three times. Add 100 μl of TMB Development Solution to each well and incubate for 10 minutes in the dark on a plate shaker. Add 100 μl of Stop Solution to each well. Shake plate on a plate shaker for 1 minute to mix. Record the OD at 450 nm. Determine the concentration of the target protein in the sample by the standard curve.
# EC50 value was determined by fitting the concentration response curves using GraphPad Prism software. The compounds of the present invention were tested for their capacity to inhibit TEAD-YAP/TAZ interaction according to the fitted curves of CTGF concentration response to compounds.
row,SMILES,EC50 [nM]
1,"C=CC(=O)N1CCC(n2nc(-c3ccc(C(F)(F)F)cc3)c3cccc(C(N)=O)c32)C1 (stereo not shown) [Compound 42, 1-(1-acryloylpyrrolidin-3-yl)-3-(4-(trifluoromethyl)phenyl)-1H-indazole-7-carboxamide]",14
2,"C=C(F)C(=O)N1CC(n2nc(-c3ccc(C(F)(F)F)cc3)c3c2CCCC3)C1 [Compound 217, 2-fluoro-1-(3-(3-(4-(trifluoro-methyl)phenyl)-4,5,6,7-tetra-hydro-1H-indazol-1-yl)azetidin-1-yl)prop-2-en-1-one]",5.7
3,"C=C(F)C(=O)Nc1cc(-n2nc(-c3ccc(C(F)(F)F)cc3)c3cccnc32)ccc1OC [Compound 188, 2-fluoro-N-(2-methoxy-5-(3-(4-(trifluoromethyl)phenyl)-1H-pyrazolo[3,4-b]pyridin-1-yl)-phenyl)acrylamide]",0.06
4,"C=C(F)C(=O)N1CC(Nc2nc(-c3ccc(C(F)(F)F)cc3)nc3ccccc23)C1 [Compound 255, 2 fluoro-1-(3-((2-(4-(trifluoromethyl)phenyl)quinazolin-4 yl)amino)azetidin-1 yl)prop-2-en-1-one]",44
5,"C=CC(=O)N1CCC(n2nc(-c3ccc(C(F)(F)F)cc3F)c3cccnc32)C1 (stereo not shown) [Compound 29, 1-(3-(3-(2-fluoro-4-(trifluoro-methyl)phenyl)-1H-pyrazolo[3,4-b]pyridin-1-yl)pyrrolidin-1-yl)-prop-2-en-1-one]",12
6,"C=CC(=O)N1CC(n2nc(-c3ccc(C(F)(F)F)cc3)c3ccc(N(C)C)nc32)C1 [Compound 121, 1-(3-(6-(dimethylamino)-3-(4-(trifluoromethyl)phenyl)-1H-pyrazolo[3,4-b]pyridin-1-yl)-azetidin-1-yl)prop-2-en-1-one]",3
7,"C=C(F)C(=O)N1CC(n2nc(-c3ccc(C(F)(F)F)cc3)c3ccc(OC)nc32)C1 [Compound 221, 2-fluoro-1-(3-(6-methoxy-3-(4-(trifluoromethyl)phenyl)-1H-pyrazolo[3,4-b]pyridin-1-yl)-azetidin-1-yl)prop-2-en-1-one]",0.9
8,"C=C(F)C(=O)N1CC(n2nc(-c3ccc(C(F)(F)F)cc3)c3c2CCOC3)C1 [Compound 208, 2-fluoro-1-(3-(3-(4-(trifluoro-methyl)phenyl)-6,7-dihydro-pyrano-[4,3-c]pyrazol-1(4H)-yl)-azetidin-1-yl)prop-2-en-1-one]",4.1
9,"C=CC(=O)N1CCC(n2nc(-c3ccc(C(F)(F)F)cc3)c3cccc(C(=O)NC4CCC(F)(F)CC4)c32)C1 (stereo not shown) [Compound 111, 1-(1-acryloylpyrrolidin-3-yl)-N-(4,4-difluorocyclohexyl)-3-(4-(trifluoromethyl)phenyl)-1H-indazole-7-carboxamide]",84
10,"C=CC(=O)N1CCC(n2nc(-c3ccc(C(F)(F)F)nc3)c3cccc(C(=O)NC(C)C)c32)C1 (stereo not shown) [Compound 98, 1-(1-acryloylpyrrolidin-3-yl)-N-isopropyl-3-(6-(trifluoromethyl)-pyridin-3-yl)-1H-indazole-7-carboxamide]",84
11,"C=CC(=O)N1CCC(n2nc(-c3ccc(C(F)(F)F)cc3)c3cc(F)c(F)cc32)C1 (stereo not shown) [Compound 51, 1-(3-(5,6-difluoro-3-(4-(trifluoro-methyl)phenyl)-1H-indazol-1-yl)-pyrrolidin-1-yl)prop-2-en-1-one]",44
12,"C=CC(=O)NC1CN(c2nc(-c3ccc(C(F)(F)F)cc3)n3ccccc23)C1 [Compound 13, N-(1-(3-(4-(trifluoromethyl)phenyl)imidazo[1,5-a]pyridin-1 yl)azetidin-3 yl)acrylamide]",20
13,"C=CC(=O)N1CC(n2nc(-c3ccc(C(F)(F)F)cc3)c3ncn(C)c(=O)c32)C1 [Compound 79, 1-(1-acryloylazetidin-3-yl)-6-methyl-3-(4-(trifluoromethyl)-phenyl)-1,6-dihydro-7H-pyrazolo[4,3-d]pyrimidin-7-one]",7.2
14,"C=C(F)C(=O)N1CC(n2c(=O)n(-c3ccc(C(F)(F)F)cc3)c3ncccc32)C1 [Compound 239, 1-(1-(2-fluoroacryloyl)azetidin-3-yl)-3-(4-(trifluoromethyl)phenyl)-1,3-dihydro-2H-imidazo[4,5-b]pyridin-2-one]",15
15,"C=C(F)C(=O)N1CCC(n2nc(-c3ccc(C(F)(F)F)cc3)c3ncccc32)C1 (stereo not shown) [Compound 71, 2-fluoro-1-(3-(3-(4-(trifluoro-methyl)phenyl)-1H-pyrazolo[4,3-b]pyridin-1-yl)pyrrolidin-1-yl)-prop-2-en-1-one]",12
16,"C=CC(=O)N1CC(n2nc(-c3ccc(C(F)(F)F)cc3F)c3ncccc32)C1 [Compound 129, 1-(3-(3-(2-fluoro-4-(trifluoro-methyl)phenyl)-1H-pyrazolo[4,3-b]pyridin-1-yl)azetidin-1-yl)prop-2-en-1-one]",8
17,"C=CC(=O)N1CCC(n2nc(-c3ccc(C(F)(F)F)cc3)c3cccc(Cl)c32)C1 (stereo not shown) [Compound 45, 1-(3-(7-chloro-3-(4-(trifluoro-methyl)phenyl)-1H-indazol-1-yl)-pyrrolidin-1-yl)prop-2-en-1-one]",15
18,"C=CC(=O)N1CCC(n2nc(-c3ccc(C(F)(F)F)cc3)c3ccncc32)C1 (stereo not shown) [Compound 22, 1-(3-(3-(4-(trifluoromethyl)phen-yl)-1H-pyrazolo[3,4-c]pyridin-1-yl)pyrrolidin-1-yl)prop-2-en-1-one]",20
19,"C=C(F)C(=O)N1CC(n2nc(-c3ccc(C(F)(F)F)cc3)c3cccnc32)C1C (stereo not shown) [Compound 9, 2 fluoro-1-(2-methyl-3-(3-(4-(trifluoromethyl)phenyl)-1H-pyrazolo[3,4-b]pyridin-1 yl)azetidin-1 yl)prop-2-en-1-one]",1.4
20,"C=CC(=O)N1CCC(n2nc(-c3ccc(C(F)(F)F)cc3)c3cccc(F)c32)C1 (stereo not shown) [Compound 70, 1-(3-(7-fluoro-3-(4-(trifluoro-methyl)phenyl)-1H-indazol-1-yl)-pyrrolidin-1-yl)prop-2-en-1-one]",34
21,"C=C(F)C(=O)N1CC(n2nc(-c3ccc(C(F)(F)F)cc3)c3ccccc32)C1 [Compound 196, 2-fluoro-1-(3-(3-(4-(trifluoro-methyl)phenyl)-1H-indazol-1-yl)azetidin-1-yl)prop-2-en-1-one]",9
22,"C=CC(=O)N1CCC(n2nc(-c3ccc(C(F)(F)F)nc3)c3cccc(C(=O)NC)c32)C1 (stereo not shown) [Compound 102, 1-(1-acryloylpyrrolidin-3-yl)-N-methyl-3-(6-(trifluoromethyl)-pyridin-3-yl)-1H-indazole-7-carboxamide]",183
23,"C=C(F)C(=O)N1CCC(n2nc(-c3ccc(C(F)(F)F)cc3)c3cc(OC)cnc32)C1 (stereo not shown) [Compound 95, 2-fluoro-1-(3-(5-methoxy-3-(4-(trifluoromethyl)phenyl)-1H-pyrazolo[3,4-b]pyridin-1-yl)-pyrrolidin-1-yl)prop-2-en-1-one]",30
24,"C=CC(=O)N1CCC(n2nc(-c3ccc(C(F)(F)F)cc3)c3cccc(C(=O)N(C)C)c32)C1 (stereo not shown) [Compound 103, 1-(1-acryloylpyrrolidin-3-yl)-N,N-dimethyl-3-(4-(trifluoromethyl)-phenyl)-1H-indazole-7-carbox-amide]",158
25,"C=C(F)C(=O)NCC(C=O)n1nc(-c2ccc(C(F)(F)F)cc2)c2cccnc21 (stereo not shown) [Com. EX.1, 2-fluoro-N-(3-oxo-2-(3-(4-(trifluoromethyl)phenyl)-1H-pyrazolo[3,4-b]pyridin-1-yl)propyl)acrylamide, reference compound]",> 10000
26,"C=C(F)C(=O)N1CC(n2nc(-c3ccc(C(F)(F)F)cc3)c3ccc(C)nc32)C1 [Compound 186, 2-fluoro-1-(3-(6-methyl-3-(4-(trifluoromethyl)phenyl)-1H-pyrazolo[3,4-b]pyridin-1-yl)-azetidin-1-yl)prop-2-en-1-one]",2
27,"C=C(F)C(=O)N1CC(n2nc(Nc3ccc(C(F)(F)F)cc3)c3ccc(C)nc32)C1 [Compound 11, 2 fluoro-1-(3-(6-methyl-3-((4-(trifluoromethyl)phenyl)amino)-1H-pyrazolo[3,4-b]pyridin-1 yl)azetidin-1 yl)prop-2-en-1-one]",0.7
28,"C=CC(=O)Nc1cc(-n2nc(-c3ccc(C(F)(F)F)cc3)c3cccnc32)ccc1Cl [Compound 189, N-(2-chloro-5-(3-(4-(trifluoro-methyl)phenyl)-1H-pyrazolo[3,4-b]pyridin-1-yl)phenyl)acrylamide]",24
